# Assay results as given in patent US12421254B2, “KRAS modulators and uses thereof” (Quanta Therapeutics, Inc., priority 2023, dated 2025).
# Tests used:
# [1] = biological target: GST-tagged KRAS-G12V (2-169) (Homo sapiens, UniProt P01116, G12V); test: Nucleotide exchange assay (NEA), SOS-mediated, HTRF, KRAS G12V; assay type: biochemical; details: Table 4; IC50 extracted at 90 min; 80 nM SOS
# Summary of the method: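 GST-KRAS-G12V (2-169), 0.25 nM, pre-incubated 1 h at RT with compound, then SOS1cat (564-1049) 80 nM and GTP-DY-647P1 150 nM added in HEPES pH 7.3 buffer with MgCl2 and DTT. HTRF via anti-GST Tb cryptate read over 90 min; IC50 from 4-parameter fit at 90 min, blanked to no-SOS reactions.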
# [2] = tested on: phospho-ERK in GP2D (KRAS-G12D) cells; test: pERK In Cell Western (ICW) assay (Method B), GP2D; assay type: cell-based; details: GP2d, 3 h, Table 4
# Summary of the method: (§1)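 Cells were seeded at 5,000/well (AGS) or 10,000/well (GP2D, SW620), grown overnight, then treated 3 h at 37 °C with a ½-log 9-point compound dilution. Fixed cells were stained for phospho-ERK with DRAQ5 as DNA counterstain; pERK/DRAQ5 ratio as percent of blank control gave IC50 by 4-parameter fit.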
# [3] = biological target: GST-tagged KRAS-G12D (2-169) (Homo sapiens, UniProt P01116, G12D); test: Nucleotide exchange assay (NEA), SOS-mediated, HTRF, KRAS G12D; assay type: biochemical; details: Table 4; IC50 extracted at 30 min; 20 nM SOScat; read-out: NEA G12D IC50
# Summary of the method: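 Compound preincubated 1 h at RT with 0.25 nM GST-KRAS-G12D (2-169) and anti-GST Tb donor, then 20 nM SOS1cat (564-1049) and 150 nM GTP-DY-647P1 added; pH 7.3 HEPES buffer with MgCl2 and DTT. HTRF monitored at RT; % inhibition versus DMSO and no-SOS blank, 4-parameter IC50 taken at 30 min.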
# [4] = tested on: phospho-ERK in SW620 (KRAS-G12V) cells; test: pERK In Cell Western (ICW) assay (Method B), SW620; assay type: cell-based; details: Homo sapiens, SW-620, 3 h, Table 4
# Summary of the method: as §1
# GST-tagged KRAS-G12D (2-169), sequence (P01116 2-169 isoform P01116-2 G12D): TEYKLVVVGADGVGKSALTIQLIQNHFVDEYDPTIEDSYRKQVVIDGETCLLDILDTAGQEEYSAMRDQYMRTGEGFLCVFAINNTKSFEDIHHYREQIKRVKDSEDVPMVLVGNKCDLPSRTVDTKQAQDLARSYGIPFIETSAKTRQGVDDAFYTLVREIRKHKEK
# GST-tagged KRAS-G12V (2-169), sequence (P01116 2-169 isoform P01116-2 G12V): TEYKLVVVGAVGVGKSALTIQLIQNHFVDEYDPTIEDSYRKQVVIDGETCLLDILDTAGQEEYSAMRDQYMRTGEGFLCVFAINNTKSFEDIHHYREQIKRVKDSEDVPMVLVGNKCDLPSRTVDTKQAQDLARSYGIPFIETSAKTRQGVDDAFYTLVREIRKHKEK
Compound,IC50 [1] [nM],IC50 [2] [nM],IC50 [3] [nM],IC50 [4] [nM]
"C[C@H](c1cccnc1N)N(C)c1nc(OC[C@@]23CCCN2C[C@H](F)C3)nc(N2CC(C)(c3csc(N)c3C#N)C2)n1 [Compound 172, 2-amino-4-[1-[4-[[(1R)-1-(2-amino-3-pyridyl)ethyl]-methyl-amino]-6-[[(2R,8S)-2-fluoro-1,2,3,5,6,7-hexahydropyrrolizin-8-yl]methoxy]-1,3,5-triazin-2-yl]-3-methyl-azetidin-3-yl]thiophene-3-carbonitrile]",< 10,100 to 1000,< 10,10 to 100
"CC(c1nsnc1N)N(C)c1nc(OC[C@@]23CCCN2C[C@H](F)C3)nc(N2CC3(C2)SCc2sc(N)c(C#N)c23)n1 (stereo partly drawn) [Compound 174, 2-amino-1′-[4-[1-(4-amino-1,2,5-thiadiazol-3-yl)ethyl-methyl-amino]-6-[[(2R,8S)-2-fluoro-1,2,3,5,6,7-hexahydropyrrolizin-8-yl]methoxy]-1,3,5-triazin-2-yl]spiro[6H-thieno[2,3-c]thiophene-4,3′-azetidine]-3-carbonitrile]",< 10,10 to 100,< 10,< 10
"CCN(c1nc(OC[C@@H]2CC(F)(F)CN2C)nc(N2CC3(C2)SCc2sc(N)c(C#N)c23)n1)[C@H](C)c1cccnc1N [Compound 176, 2-amino-1′-[4-[[(1R)-1-(2-amino-3-pyridyl)ethyl]-ethyl-amino]-6-[[(2S)-4,4-difluoro-1-methyl-pyrrolidin-2-yl]methoxy]-1,3,5-triazin-2-yl]spiro[6H-thieno[3,4-b]thiophene-4,3′-azetidine]-3-carbonitrile]",< 10,1000 to 20000,100 to 1000,10 to 100
"CCN(c1nc(OCC2CCC3C(=O)N(C)CCN23)nc(N2CC3(C2)SCc2sc(N)c(C#N)c23)n1)C(C)c1cccnc1N (mixture of isomers) [Compound 210, 1′-[4-[[(6SR,8aSR)-2-methyl-1-oxo-3,4,6,7,8,8a-hexahydropyrrolo[1,2-a]pyrazin-6-yl]methoxy]-6-[[(IR)-1-(2-amino-3-pyridyl)ethyl]-ethyl-amino]-1,3,5-triazin-2-yl]-2-amino-spiro[6H-thieno[3,4-b]thiophene-4,3′-azetidine]-3-carbonitrile]",< 10,100 to 1000,< 10,10 to 100
"C[C@@]1(O)C[C@H](F)CN(c2nc(OC[C@@]34CCCN3C[C@H](F)C4)nc(N3CC4(C3)SCc3sc(N)c(C#N)c34)n2)C1 [Compound 143, 2-amino-1′-[4-[[(2R,8S)-2-fluoro-1,2,3,5,6,7-hexahydropyrrolizin-8-yl]methoxy]-6-[(3R,5S)-5-fluoro-3-hydroxy-3-methyl-1-piperidyl]-1,3,5-triazin-2-yl]spiro[6H-thieno[3,4-b]thiophene-4,3′-azetidine]-3-carbonitrile]",< 10,< 10,< 10,10 to 100
"C[C@@]1(O)CCCN(c2nc(OC[C@@]34CCCN3C[C@H](F)C4)nc(N3CC4(C3)c3c(sc(N)c3C#N)CC3CC34)n2)C1 (stereo partly drawn) [Compound 51, 2-amino-1′-[4-[[(2R,8S)-2-fluoro-1,2,3,5,6,7-hexahydropyrrolizin-8-yl]methoxy]-6-[(3R)-3-hydroxy-3-methyl-1-piperidyl]-1,3,5-triazin-2-yl]spiro[4a,5,5a,6-tetrahydrocyclopropa[f]benzothiophene-4,3′-azetidine]-3-carbonitrile]",10 to 100,100 to 1000,10 to 100,1000 to 20000
"N#Cc1c(N)sc2c1C1(CCC2)CN(c2nc(OC[C@@]34CCCN3C[C@H](F)C4)nc(N3CCCC(C#N)CC3)n2)C1 (stereo partly drawn) [Compound 39, 2-amino-1′-[4-(4-cyanoazepan-1-yl)-6-[[(2R,8S)-2-fluoro-1,2,3,5,6,7-hexahydropyrrolizin-8-yl]methoxy]-1,3,5-triazin-2-yl]spiro[6,7-dihydro-5H-benzothiophene-4,3′-azetidine]-3-carbonitrile]",10 to 100,1000 to 20000,10 to 100,1000 to 20000
"C[C@H](c1cccnc1N)N(C)c1nc(OC[C@@]23CCCN2C[C@H](F)C3)nc(N2CC3(CCCc4sc(N)c(C#N)c43)C2)n1 [Compound 163, 2-amino-1′-[4-[[(1R)-1-(2-amino-3-pyridyl)ethyl]-methyl-amino]-6-[[(2R,8S)-2-fluoro-1,2,3,5,6,7-hexahydropyrrolizin-8-yl]methoxy]-1,3,5-triazin-2-yl]spiro[6,7-dihydro-5H-benzothiophene-4,3′-azetidine]-3-carbonitrile]",< 10,< 10,< 10,< 10
"CC(c1nccnc1N)N(C)c1nc(OC[C@@]23CCCN2C[C@H](F)C3)nc(N2CC3(C2)SCc2sc(N)c(C#N)c23)n1 (stereo partly drawn) [Compound 134, 2-amino-1′-[4-[1-(3-aminopyrazin-2-yl)ethyl-methyl-amino]-6-[[(2R,8S)-2-fluoro-1,2,3,5,6,7-hexahydropyrrolizin-8-yl]methoxy]-1,3,5-triazin-2-yl]spiro[6H-thieno[3,4-b]thiophene-4,3′-azetidine]-3-carbonitrile]",< 10,10 to 100,< 10,< 10
"N#Cc1c(N)sc2c1C1(CC2)CN(c2nc(OC[C@@]34CCCN3C[C@H](F)C4)nc(N3CCCCC(O)C3)n2)C1 (stereo partly drawn) [Compound 50, 2-amino-1′-[4-(3-hydroxyazepan-1-yl)-6-[[(2R,8S)-2-fluoro-1,2,3,5,6,7-hexahydropyrrolizin-8-yl]methoxy]-1,3,5-triazin-2-yl]spiro[5,6-dihydrocyclopenta[b]thiophene-4,3′-azetidine]-3-carbonitrile]",10 to 100,100 to 1000,10 to 100,100 to 1000
"CC(c1cccnc1N)N(CCC#N)c1nc(OC[C@@]23CCCN2C[C@H](F)C3)nc(N2CC3(CCc4sc(N)c(C#N)c43)C2)n1 (stereo partly drawn) [Compound 118, 2-amino-1′-[4-[1-(2-amino-3-pyridyl)ethyl-(2-cyanoethyl)amino]-6-[[(2R,8S)-2-fluoro-1,2,3,5,6,7-hexahydropyrrolizin-8-yl]methoxy]-1,3,5-triazin-2-yl]spiro[5,6-dihydrocyclopenta[b]thiophene-4,3′-azetidine]-3-carbonitrile]",< 10,< 10,< 10,< 10
"N#CCC12CC1CCN(c1nc(OC[C@@]34CCCN3C[C@H](F)C4)nc(N3CC4(CCc5sc(N)c(C#N)c54)C3)n1)C2 (stereo partly drawn) [Compound 43, 2-amino-1′-[4-[1-(cyanomethyl)-3-azabicyclo[4.1.0]heptan-3-yl]-6-[[(2R,8S)-2-fluoro-1,2,3,5,6,7-hexahydropyrrolizin-8-yl]methoxy]-1,3,5-triazin-2-yl]spiro[5,6-dihydrocyclopenta[b]thiophene-4,3′-azetidine]-3-carbonitrile]",10 to 100,1000 to 20000,10 to 100,1000 to 20000
"CC(c1cccnc1N)N(C)c1nc(OCC2(CN3CCOCC3)CC2)nc(N2CC3(C2)SCc2sc(N)c(C#N)c23)n1 (stereo not shown) [Compound 128, 2-amino-1′-[4-[1-(2-amino-3-pyridyl)ethyl-methyl-amino]-6-[[1-(morpholinomethyl)cyclopropyl]methoxy]-1,3,5-triazin-2-yl]spiro[6H-thieno[3,4-b]thiophene-4,3′-azetidine]-3-carbonitrile]",< 10,100 to 1000,10 to 100,10 to 100
"CC(c1cccnc1O)N(C)c1nc(OC[C@@]23CCCN2C[C@H](F)C3)nc(N2CC3(CCc4sc(N)c(C#N)c43)C2)n1 (stereo partly drawn) [Compound 138, 2-amino-1′-[4-[[(2R,8S)-2-fluoro-1,2,3,5,6,7-hexahydropyrrolizin-8-yl]methoxy]-6-[1-(2-hydroxy-3-pyridyl)ethyl-methyl-amino]-1,3,5-triazin-2-yl]spiro[5,6-dihydrocyclopenta[b]thiophene-4,3′-azetidine]-3-carbonitrile]",1000 to 20000,1000 to 20000,100 to 1000,1000 to 20000
"CC(C#N)N(CC(F)F)c1nc(OC[C@@]23CCCN2C[C@H](F)C3)nc(N2CC3(C2)SCc2sc(N)c(C#N)c23)n1 (stereo partly drawn) [Compound 258, 2-amino-1′-[4-[1-cyanoethyl(2,2-difluoroethyl)amino]-6-[[(2R,8S)-2-fluoro-1,2,3,5,6,7-hexahydropyrrolizin-8-yl]methoxy]-1,3,5-triazin-2-yl]spiro[6H-thieno[2,3-c]thiophene-4,3′-azetidine]-3-carbonitrile]",< 10,10 to 100,< 10,10 to 100
"CC(c1ccnnc1N)N(C)c1nc(OC[C@@]23CCCN2C[C@H](F)C3)nc(N2CC3(CCc4sc(N)c(C#N)c43)C2)n1 (stereo partly drawn) [Compound 109, 2-amino-1′-[4-[1-(3-aminopyridazin-4-yl)ethyl-methyl-amino]-6-[[(2R,8S)-2-fluoro-1,2,3,5,6,7-hexahydropyrrolizin-8-yl]methoxy]-1,3,5-triazin-2-yl]spiro[5,6-dihydrocyclopenta[b]thiophene-4,3′-azetidine]-3-carbonitrile]",< 10,100 to 1000,< 10,10 to 100
